In patent publication US20240398812A1 (Caraway Therapeutics, Inc., priority 2021, published 2024) one finds EC50 data, which are given here for ten compounds.

Some results are limits rather than exact numbers.

In one test the target is human TRPML1 (Homo sapiens, UniProt Q9GZU1). In words: Fluorescent TRPML1 assay (Fluo4-AM calcium fluorescence, HEK-293 Trex cells). In kind it is cell-based. Conditions: Table 3, compounds 101-177. How it is done:
(§1) HEK-293 Trex cells were stably transfected with a construct consisting of the human coding sequence for TRPML1 cloned into the tet-inducible plasmid pCDNA5 T/O. Mutations were introduced into the TRPML1 sequence to facilitate expression on the cell surface (Silvia Vergarajauregui, Rosa Puertollano Traffic. 2006 March; 7 (3): 337-353). Briefly, the cells are cultured in 150 mm round tissue culture dishes containing 20 mL of media. The day before the assay the cells are rinsed with DPBS —Ca—Mg and then treated briefly with Trypsin-EDTA. The Trypsin-EDTA is diluted with growth media, and cells are counted. 38×10^6 cells are re-plated into 150 mm round tissue culture dishes in media containing 0.5 ug/mL doxycycline to induce expression of hTRPML1.
(§2) The day of the experiment cells are lifted from the plates as above and collected by centrifugation. The cells are then suspended in dye loading buffer consisting of Ringer's solution supplemented with 0.1% Pluronic Acid and 1 micromolar Fluo4-AM dye. Cells are loaded for ˜60 minutes in the dark with occasional mixing. The cells are collected by centrifugation, the loading media aspirated, and the cells resuspended in 25 mL Ringer's solution and incubated ˜60 minutes in the dark. The cells are again collected by centrifugation, rinsed in Ringer's Solution and resuspended to 0.2×10^6 cells/mL in modified Ringer's solution containing 10 mM calcium.
(§3) Compounds are dissolved to a concentration of 10 millimolar with DMSO. Compound plates are created by dispensing compounds into 384 well black wall clear bottom plates (Greiner 781091). Positive and negative controls are included on each plate. Typically, different amounts of each compound are tested ranging from 100 nanoMoles (20 micromolar final concentration) decreasing in half-log steps to 31 picoMoles (6 nanomolar final concentration). Each concentration is typically tested in triplicate.
(§4) 50 microliters of dye-loaded cells are dispensed into each well of the compound assay plate created above. The fluorescence in each well is then determined with an excitation wavelength of 480 nm and an emission wavelength of 540 nm using either a Molecular Devices SpectraMax multimode plate reader or a Hamamatsu FDSS/uCell plate imager.
(§5) The resulting fluorescence for each well is exported as an ascii file and loaded into our LIMS for analysis. The percent activity of each compound at each concentration is determined by comparison to the positive and negative control wells included in each plate.
(§6) EC50 values were calculated using a non-linear regression of Prism. In the table, “A” indicates an EC50 of less than 100 nM, “B” indicates an EC50 range from 100 nM to 500 nM; “C” indicates an EC50 range from 500 nM to 2 μM; and “D” indicates an EC50 greater than 2 μM.

For a further test, the target named is T1, TRPML3 (Homo sapiens, UniProt Q8TDD5).
T1 construct: expressed in transfected cells
T1 sequence (Q8TDD5 1-553): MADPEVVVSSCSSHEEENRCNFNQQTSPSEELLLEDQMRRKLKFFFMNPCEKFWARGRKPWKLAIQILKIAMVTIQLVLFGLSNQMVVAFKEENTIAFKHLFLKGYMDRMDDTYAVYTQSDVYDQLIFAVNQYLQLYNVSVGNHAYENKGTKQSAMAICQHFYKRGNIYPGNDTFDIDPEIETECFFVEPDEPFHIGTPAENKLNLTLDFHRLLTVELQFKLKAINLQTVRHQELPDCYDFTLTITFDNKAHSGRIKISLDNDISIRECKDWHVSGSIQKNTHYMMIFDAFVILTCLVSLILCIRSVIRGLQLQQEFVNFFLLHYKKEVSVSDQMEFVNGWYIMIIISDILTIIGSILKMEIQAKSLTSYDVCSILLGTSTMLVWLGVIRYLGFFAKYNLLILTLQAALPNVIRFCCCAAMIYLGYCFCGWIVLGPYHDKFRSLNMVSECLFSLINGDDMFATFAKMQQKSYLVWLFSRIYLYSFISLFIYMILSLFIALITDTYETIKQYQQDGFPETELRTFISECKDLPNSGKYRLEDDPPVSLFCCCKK
The experiment in a line: Fluorescent TRPML3 assay (as for TRPML1). In kind it is cell-based. As to conditions: Table 3, compounds 101-177. Here is the method: as §1, §2, §3, §4, §5
Assays for TRPML2 and TRPML3 were performed as above for TRPML1, by substituting the appropriate TRPML2 or TRPML3 subtype for the TRPML1.
as §6

Sequence of human TRPML1 (Q9GZU1 whole entry L15A/L16A/L577A/L578A, form open): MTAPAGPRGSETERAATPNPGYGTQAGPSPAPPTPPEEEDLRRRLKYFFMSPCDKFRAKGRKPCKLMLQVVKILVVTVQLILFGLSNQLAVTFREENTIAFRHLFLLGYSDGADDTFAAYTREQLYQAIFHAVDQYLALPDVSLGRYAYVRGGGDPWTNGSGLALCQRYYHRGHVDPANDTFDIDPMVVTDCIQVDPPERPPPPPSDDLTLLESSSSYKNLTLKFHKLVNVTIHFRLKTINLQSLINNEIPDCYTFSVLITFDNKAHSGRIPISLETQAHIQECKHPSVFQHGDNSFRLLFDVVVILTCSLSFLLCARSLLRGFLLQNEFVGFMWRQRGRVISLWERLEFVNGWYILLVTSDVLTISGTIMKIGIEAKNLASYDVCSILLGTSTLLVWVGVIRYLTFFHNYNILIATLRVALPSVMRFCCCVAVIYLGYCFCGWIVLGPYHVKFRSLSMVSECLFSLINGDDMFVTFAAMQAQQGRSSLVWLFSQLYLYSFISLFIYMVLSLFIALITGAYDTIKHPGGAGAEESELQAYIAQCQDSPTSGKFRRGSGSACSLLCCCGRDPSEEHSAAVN

The EC50 is the concentration at which the effect is half-maximal. On to `C[C@H]1CN(C(=O)CC(C)(C)C)CCN1c1ncnc2c1c(C1CC1)cn2-c1cc(C#N)ccn1` [Compound 136, (S)-2-(5-cyclopropyl-4-(4-(3,3-dimethylbutanoyl)-2-methylpiperazin-1-yl)-7H-pyrrolo[2,3-d]pyrimidin-7-yl)isonicotinonitrile], for which the EC50 on human TRPML1 and at TRPML3 was 100 to 500 nM throughout.
`CC(C)CC(=O)N1CCN(c2ncnc3c2c(C2CC2)cn3-c2cc(C#N)ccn2)[C@@H](C)C1` [Compound 137, (S)-2-(5-cyclopropyl-4-(2-methyl-4-(3-methylbutanoyl)piperazin-1-yl)-7H-pyrrolo[2,3-d]pyrimidin-7-yl)isonicotinonitrile]: the EC50 was under 100 nM on human TRPML1 and over 2000 nM on TRPML3.
On the same counts, the results for `CC(C)C(=O)N1CCN(c2ncnc3c2c(-c2ccccc2F)cn3-c2cc(C#N)ccn2)[C@H](C)C1` [Compound 138, (R)-2-(5-(2-fluorophenyl)-4-(4-isobutyryl-2-methylpiperazin-1-yl)-7H-pyrrolo[2,3-d]pyrimidin-7-yl)isonicotinonitrile] are 100 to 500 nM and under 100 nM.
For `CC(C)C(=O)N1CCN(c2ncnc3c2c(-c2ccccc2F)cn3-c2ncc(C#N)s2)[C@@H](C)C1` [Compound 142, (S)-2-(5-(2-fluorophenyl)-4-(4-isobutyryl-2-methylpiperazin-1-yl)-7H-pyrrolo[2,3-d]pyrimidin-7-yl) thiazole-5-carbonitrile], in that order: 100 to 500 nM and 100 to 500 nM.
For `CC(C)C(=O)N1CCN(c2ncnc3c2c(-c2ccccc2F)cn3-c2cc(C#N)ccn2)CC12CC2` [Compound 145, 2-(5-(2-fluorophenyl)-4-(4-isobutyryl-4,7-diazaspiro[2.5]octan-7-yl)-7H-pyrrolo[2,3-d]pyrimidin-7-yl)isonicotinonitrile], in that order: 100 to 500 nM and under 100 nM.
In the case of `CCN(CC)c1cn(-c2cccc(Cl)c2)c2ncnc(N3CCN(C(=O)C(C)C)C[C@@H]3C)c12` [Compound 147, (S)-1-(4-(7-(3-chlorophenyl)-5-(diethylamino)-7H-pyrrolo[2,3-d]pyrimidin-4-yl)-3-methylpiperazin-1-yl)-2-methylpropan-1-one], the EC50 on human TRPML1 and on TRPML3 was 500 to 2000 nM throughout.
For `CC(C)C(=O)N1CCN(c2ncnc3c2c(N2CCCC2)cn3-c2cc(C#N)ccn2)C[C@H]1C` [Compound 148, (R)-2-(4-(4-isobutyryl-3-methylpiperazin-1-yl)-5-(pyrrolidin-1-yl)-7H-pyrrolo[2,3-d]pyrimidin-7-yl)isonicotinonitrile], the EC50 is 500 to 2000 nM at human TRPML1 and 100 to 500 nM on TRPML3.
On the same counts, the results for `CC(C)C(=O)N1CCN(c2ncnc3c2c(C2CCC2)cn3-c2cc(C#N)ccn2)[C@@H](C)C1` [Compound 150, (S)-2-(5-cyclobutyl-4-(4-isobutyryl-2-methylpiperazin-1-yl)-7H-pyrrolo[2,3-d]pyrimidin-7-yl)isonicotinonitrile] are 500 to 2000 nM and 500 to 2000 nM.
On the same counts, the results for `CCN(CC)c1cn(-c2cc(C#N)ccn2)c2ncnc(N3CCN(C(=O)C(C)C)C[C@@H]3C)c12` [Compound 151, (S)-2-(5-(diethylamino)-4-(4-isobutyryl-2-methylpiperazin-1-yl)-7H-pyrrolo[2,3-d]pyrimidin-7-yl)isonicotinonitrile] are 100 to 500 nM and 100 to 500 nM.
For `CC(C)C(=O)N1CCN(c2ncnc3c2c(-c2ccccc2F)cn3-c2cc(C#N)ncn2)[C@@H](C)C1` [Compound 152, (S)-6-(5-(2-fluorophenyl)-4-(4-isobutyryl-2-methylpiperazin-1-yl)-7H-pyrrolo[2,3-d]pyrimidin-7-yl)pyrimidine-4-carbonitrile], in that order: 100 to 500 nM and under 100 nM.
